According to patent publication US20210108199A1, “Treatment for aggressive cancers by targeting C9ORF72” (The Trustees of Columbia University in the City of New York, priority 2017, published 2021):

Tests used:
Format in all cases: cell-based
U87 p53 null KO #4 cells = assay: Vacuoles in p53 null cells transfected with HA tagged wtp53; details: U87 p53 null KO #4 cells transfected with HA tagged wtp53
Method: To provide further evidence of p53 involvement in vacuolization, it was tested whether p53 transfection into p53 null cell lines in C9 KD background induced accumulation of vacuoles. […] In FIG. 36A, phase contrast images (40×) are shown of U87 p53 null KO #4 cells that were transfected with HA tagged wtp53 and then treated with control (siCtrl) or C9 (siC9; SEQ ID NO:631) siRNA. The black boxes show the location of the zoomed in images below with black arrows pointing to vacuoles. […] FIG. 36C is a graph that presents quantitation of data from about 100 cells, indicating the number of vacuoles per cell for conditions described above. Statistical significance was assessed by unpaired t-test: NS P>0.05, *P≤0.05, **P≤0.01, ***P≤0.001 ****P≤0.0001.

U87 cells [1] = assay: ROS detection by dihydroethidium; details: day three
Method: ROS detection in U87 cells was performed using 2′,7′-dichlorofluorescin diacetate (Sigma™, D883). Cells were treated with control and siC9 siRNA. After 3 days, cells were washed with phenol red-free DMEM (ThermoFisher™, 21063029). Cells then were incubated with 20 μM DCFDA for 40 minutes at 37° C. Cells then were washed with phenol red-free DMEM. Then signal was read at Ex/Em: 485/535 nm using Synergy H1 Hybrid™ Multi-Mode Microplate reader by Biotek™. Quantitation was done after removal of background. Additionally, dihydroethidium (EMD Millipore™ 309800) was used. U87 cells were treated as described above. At day 3, cells were incubated with DHE for 30 minutes at 37° C. […]
For the above reasons, whether C9 KD may lead to increase ROS production was investigated. […] C9 was knocked down in U87 cells with two independent siRNAs and the ROS levels were measured after KD. […]
For the data presented in FIG. 21, U87 cells were treated with control (siCtrl) and C9 (siC9; SEQ ID NO:631) siRNA and on day three ROS levels measured by DCFDA and dihydroethidium. FIG. 21A presents data for fluorescent intensity between control (siCtrl) and C9 KD (siC9) cells as measured by DCFDA. […] FIG. 21C presents fluorescent intensity quantitation for about 30 cells from the dihydroethidium experiments (n=3). Statistical significance was assessed by an unpaired t-test: NS P>0.05, *P≤0.05, **P≤0.01, ***P≤0.001 ****P≤0.0001. […]

p53 null U87 cells = assay: Western blot of PARP1, p-ERK, γ-H2AX in p53 null U87 cells
Method: For Western blot analysis, cells were lysed with lysis buffer (20 mM sodium phosphate (pH 7.0), 250 mM NaCl, 30 mM sodium pyrophosphate, 0.1% Nonidet™ P-40, 5 mM EDTA, 10 mM NaF, 0.1 mM Na3VO4, and 1 mM PMSF) supplemented with complete protease inhibitors (Roche™) and homogenized by passage through a 28 gauge needle. Protein concentration was measured with a Bio-Rad™ protein assay dye reagent and results were read using a spectrophotometer (BiophotometerPlus™ by Eppendorf™). Protein extracts were resolved by SDS PAGE on gradient (Thermo Fisher™) or 12% gels. Proteins were then electrotransferred at 350 mA for 80 minutes onto a PVDF membrane (Immobilon-P PVDF). Membranes were blocked with PBST with 5% milk and 1% BSA for 30 minutes. Quantitation of blots was performed Image Studio Lite software (LI-COR Biosciences™).
In addition, C9 was knocked down with two independent siRNAs in p53 null U87 cells to investigate the role of p53 in the viability of the cells.
See FIG. 37, a WB of p53 null U87 cells (KO #4) treated with control and C9 siRNA and showing levels of PARP1, p-ERK, γ-H2AX. Actin was used as a loading control.

cortical neurons = assay: C9 knockdown in neurons and live imaging of mitochondria; details: rat-derived cortical neurons
Method: Cortices from E19 embryonic brains from pregnant Sprague-Dawley female rats were dissected in ice-cold HBSS (ThermoFisher™ Scientific #24020117), supplemented with 10 mM HEPES (pH 7.4), 10 mM MgCl2, 1% P/S and 0.5 mM L-glutamine. The hippocampal tissue was discarded and only the cortical tissue was trypsinized for 15 minutes at 37° C. in a water bath and resuspended in DMEM with 10% FBS and 1% P/S. The dissociated neurons were subjected to centrifugation to remove debris, counted and plated onto MatTek™ 35 mm or 50 mm glass bottom dishes pre-coated with Poly-L-Lysine (1 mg/mL) and Laminin, at a density of 100,000 for live imaging experiments. After about 12-15 hours, the medium was changed to Neurobasal medium supplemented with 0.5 mM L-Glutamine, B-27 serum free supplement (Gibco™) and 1% P/S. Media were changed every 2-3 days.
Day 7 cortical neurons were transfected with 80 nM C9orf72 siRNA and 40 ng CMV-GFP vector using a magnetofectamine kit (OZ Biosciences™ #MTX0750). […]

U87 cells [2] = assay: FACS cell cycle analysis; details: day three
Method: U87 cells were treated with control and C9 siRNA for 3 days. On day 3, cells were fixed in 70% ethanol at −20° C., re-suspended in phosphate-citrate buffer (192 mM Na2HPO4, 4 mM citric acid), and incubated for 30 minutes in PBS containing 10 μg/mL propidium iodide (PI) and 10 μg/mL RNase A. Data were collected on a FACSCalibur™ flow cytometer (Becton Dickinson™). Data analysis was performed using FlowJo™.
To validate the cell viability assays, C9 was knocked down in U87 cells and the cells were analyzed by FACS. […] The bar plots represent the cell cycle measurement (subG1-purple, G2-green, S-red, G1-blue) of three independent biological replicates upon control (siCtrl) or C9 (siC9; SEQ ID NO:631) siRNA. Error bars represent S.E.M.

Substance: siC9: siRNA targeting C9 mRNA: UUAAUGAAACAAUAAUCACUC (SEQ ID NO:631; sense) and GUGAUUAUUGUUUCAUUAAUC (SEQ ID NO:632; antisense) (listed as RNA, chemistry not given here)
- vacuoles per cell (U87 p53 null KO #4 cells): significant increase
- ROS (dihydroethidium) (U87 cells [1]): significant upregulation of ROS
- PARP1 protein (p53 null U87 cells; p53 KO U87 cells): PARP downregulation occurred without the presence of p53
- ERK and γ-H2AX phosphorylation (p53 null U87 cells; p53 null U87 cells (KO #4)): increased ERK and γ-H2AX phosphorylation
- mitochondria motility (cortical neurons): significantly reduced
- mitochondria accumulation (cortical neurons; dendrites): induced mitochondria accumulation in the dendrites
- decrease in G1 (U87 cells [2]): 4.7 fold
- increase in S phase (U87 cells [2]): 3.3 fold
- increase in SubG1 phase (U87 cells [2]): 3.1 fold
